The text below walks through data of publication PMC3328449, “Inhibition of Diacylglycerol–Sensitive TRPC Channels by Synthetic and Natural Steroids” (PLoS ONE, 2012).

“And” between values parts separate entries of the source, which are not always exact repeats. Equal entries are not always repeated. A value given as a limit tells only on which side of the number the result lay.

One experiment concerns the target T1, mTRPC5 (Mus musculus, UniProt Q9QX29).
T1 construct: expressed in transfected cells
T1 sequence (Q9QX29 1-975): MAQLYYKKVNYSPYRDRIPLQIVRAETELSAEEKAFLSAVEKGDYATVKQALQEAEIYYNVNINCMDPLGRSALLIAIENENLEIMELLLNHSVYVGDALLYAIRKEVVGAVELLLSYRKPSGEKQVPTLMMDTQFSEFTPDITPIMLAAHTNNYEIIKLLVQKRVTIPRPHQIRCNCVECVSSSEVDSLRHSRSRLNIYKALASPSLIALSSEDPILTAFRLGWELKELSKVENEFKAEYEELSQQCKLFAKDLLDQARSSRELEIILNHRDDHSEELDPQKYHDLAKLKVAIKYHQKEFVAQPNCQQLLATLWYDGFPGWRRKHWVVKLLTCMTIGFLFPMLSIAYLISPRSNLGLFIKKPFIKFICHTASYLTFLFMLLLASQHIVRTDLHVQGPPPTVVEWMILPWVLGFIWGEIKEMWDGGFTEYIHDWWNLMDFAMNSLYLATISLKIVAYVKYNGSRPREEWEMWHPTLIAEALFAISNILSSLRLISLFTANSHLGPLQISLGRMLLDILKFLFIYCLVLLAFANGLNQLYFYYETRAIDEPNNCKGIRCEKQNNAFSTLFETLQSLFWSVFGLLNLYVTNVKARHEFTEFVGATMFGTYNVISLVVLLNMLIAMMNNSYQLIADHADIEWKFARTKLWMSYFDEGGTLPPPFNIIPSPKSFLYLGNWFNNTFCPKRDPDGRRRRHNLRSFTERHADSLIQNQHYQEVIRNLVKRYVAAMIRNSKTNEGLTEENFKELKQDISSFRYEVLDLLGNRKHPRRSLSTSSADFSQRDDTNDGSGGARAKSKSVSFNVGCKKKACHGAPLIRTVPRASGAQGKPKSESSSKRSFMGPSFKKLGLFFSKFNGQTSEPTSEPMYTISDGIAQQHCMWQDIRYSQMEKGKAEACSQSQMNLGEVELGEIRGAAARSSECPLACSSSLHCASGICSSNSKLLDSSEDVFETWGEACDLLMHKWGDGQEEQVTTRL
Briefly: Whole-cell patch clamp, AlF4- evoked TRPC5 currents. Type of experiment: cell-based. The method, then: Cells were grown at 37°C in a humidified atmosphere (5% or 7% CO2) under standard cell culture conditions. Stable human embryonic kidney (HEK) cell lines expressing recombinant mTRPC4ß (GenBank accession number AAC05178); mTRPC5 (GenBank accession number NM_009428) or hTRPC6 (GenBank accession number AF080394) under the control of a tetracycline-inducible promoter were generated using the Flp-In T-Rex (FITR) system (Invitrogen, Karlsruhe, Germany). […]
Cells grown on poly-L-lysine-coated coverslips were continuously superfused with extracellular solution and substances were applied using an ALA BPS-8 perfusion system (ALA Scientific Instruments, Westbury, USA). […] Cells were held at −70 mV, and current-voltage (I–V) relationships were routinely measured every 2 or 3 s by applying voltage ramps (180 ms) from −100 mV to +80 mV. […]
For statistical analysis, analysis of variance was performed with Origin 6.0 software (Microcal Software Inc., Northampton, USA). […] IC50 were calculated with SigmaPlot (Systat software, San Jose, USA) using the sigmoidal Hill-model: f = 100 (C^n/(IC50 ^n+C^n)); where f is the inhibition, C is the applied drug concentration and n is the Hill coefficient. […] Averaged data is expressed as means ± SEM.
(In general: In patch-clamp work, channel activity is measured electrically.)

In the next experiment the test system is rat aortic rings. Nature of the experiment: Isometric force measurement, relaxation of phenylephrine pre-contracted rat aortic rings. The note with it: L-NAME treated, n = 6, read-out: EC50, vasorelaxation of pre-contracted aortic rings. On the procedure:
Adult male Wistar-Unilever rats (8–11 weeks old; Harlan Winkelmann, Borchen, Germany) were sacrificed by decapitation. Thoracic aortas were excised quickly, transferred to cold (4°C), carbogen (95% O2 and 5% CO2) bubbled physiological salt solution (119 mM NaCl, 4.7 mM KCl, 1.2 KH2PO4, 1.2 mM MgSO4, 1.6 mM CaCl2, 25 mM NaHCO3, 11 mM glucose) and rinsed. After removal of connective tissue and perivascular fat aortas were dissected in 5 mm rings, connected to force transducers and equilibrated in carbogen bubbled physiological salt solution at 37°C for 15 min. Aortic rings were set at 1000 mg passive tension and contractile forces were then measured isometrically using standard bath procedures as described earlier. […]
For statistical analysis, analysis of variance was performed with Origin 6.0 software (Microcal Software Inc., Northampton, USA). […] IC50 were calculated with SigmaPlot (Systat software, San Jose, USA) using the sigmoidal Hill-model: f = 100 (C^n/(IC50 ^n+C^n)); where f is the inhibition, C is the applied drug concentration and n is the Hill coefficient. The half maximal effective concentration (EC50) of norgestimate-induced vasorelaxation was calculated analogously with R = y0+y1C^n/(EC50 ^n+C^n); where R is relaxation, yo and y1 are constants, C is the applied drug concentration and n is the Hill coefficient. Averaged data is expressed as means ± SEM.

In the case of `C#C[C@]1(OC(C)=O)CC[C@H]2[C@@H]3CCC4=CC(=NO)CC[C@@H]4[C@H]3CC[C@@]21CC` (mixture of isomers) [norgestimate], the “Hill slope, TRPC5 current inhibition” value on mTRPC5 (fit to dose-response equation) is listed as 1.43. Also, the IC50 (commonly the concentration that gives 50% inhibition) on mTRPC5 (whole-cell patch clamp, AlF4- infusion, TRPC5 HEK-FITR cells, read-out: IC50, TRPC5 current inhibition) was > 10 µM and 13.6 µM and ~14 µM. Further, in the experiment on rat aortic rings, the EC50 (usually the concentration that produces a half-maximal response) came to 8.19 µM.
